According to patent publication US20250339642A1, “CATHETERS” (ConvaTec Limited, priority 2023, published 2025):

How the values were obtained:
Format in all cases: cell-based
[1] = tested on: Enterococcus faecalis NCTC 12201; assay: In vitro direct inoculation method, bacterial levels over 5 minutes
Protocol: (§1) An in vitro direct inoculation method was used to assess the antimicrobial activity of sulfanilamide in an intermittent urinary catheter scenario against […] Escherichia coli NCIMB 14067 and […] Enterococcus faecalis NCTC 12201; two microorganisms associated with urinary tract infections. Sulfanilamide concentrations of 0.1% and 0.01% were tested and bacterial levels monitored over a period of 5 minutes.
(§2) Representative colonies of the challenge microorganisms, from an 18-24 hour challenge culture plate, were dispersed in MRD to obtain an optical density (OD540nm) equivalent to approximately 1×10^8 CFU/mL. This was diluted to obtain a working concentration of 1×10^6 CFU/mL. A quantitative count was performed to confirm the inoculum level.
(§3) The challenge organism was prepared in MRD to a concentration of approximately 1×10^6 CFU/mL. This suspension was added in a 1 mL volume to 9 mL of sample (n=3 per sample, n=2 per control) in a sterile 30 mL universal and pipetted up and down to mix. Following each testing period, 5 seconds, 30 seconds, 1 minute, 2 minutes and 5 minutes, 100 μL of the test solution was transferred to 0.9 mL and 9.9 mL volumes of DENB (1:10 and 1:100 dilutions respectively). The most appropriate dilutions were inoculated (100 μL) onto duplicate pre-dried (tryptone soy agar) TSA plates and the inoculum spread using separate sterile L-shaped spreaders (for 10^−1 and 10^−2 dilutions, 0.5 mL were placed onto duplicate plates). The TSA plates were allowed to dry before being inverted and incubated at 35±3° C. for at least 48 hours. Following the incubation period, the number of bacterial colonies were counted on the most appropriate dilution for each dressing type i.e. between 25-250 CFU/plate.
(§4) The samples tested were: 0.1% sulfanilamide in sterile deionised water (SDW); 0.01% sulfanilamide in SDW; 100 ppm hypochlorous acid in SDW; and a SDW control.

[2] = tested on: Escherichia coli NCIMB 14067; assay: as above
Protocol: as §1, §2, §3, §4

S. aureus = assay: Rate of kill assessment, direct repeat inoculation of medium containing catheter; conditions: sample taken 5 seconds after each inoculation
Protocol: (§5) A microbiology assessment was performed using a medium of the invention comprising hypochlorous acid in an analogous manner to that performed for Example 2. However, for this test, following each inoculation, a sample was only taken after 5 seconds to evaluate the rate of kill. Further, in addition to the previous microorganisms tested, a further gram-positive organism, S. aureus, was tested.
(§6) A microbiology assessment was performed using a medium comprising chlorine dioxide in an analogous manner to that performed for Example 5.

E. coli = assay: as above; conditions: sample taken 5 seconds after each inoculation
Protocol: (§7) To assess the sterilisation potential of the medium comprising chlorine-containing species, a microbiology assessment was conducted which consisted of rate of kill assessments against repeat inoculation of E. coli and E. faecalis. These organisms were selected as they are commonly identified in catheter associated urinary tract infections. The selection also covers both gram-positive and gram-negative species to test the broad spectrum antimicrobial performance of the medium.
(§8) Intermittent urinary catheters, as used for Example 1, were provided and submerged in an aqueous medium comprising sodium hypochlorite and sodium chloride. The media comprising the catheters were respectively inoculated with the two microorganisms.
(§9) A direct inoculation method was applied against each microorganism. The test organisms were reinoculated following 1, 2, 3, 4, 5, 6, and 24 hours. Following each inoculation, a sample was taken after 5 seconds, 1, 5, 10 and 15 minutes to evaluate the rate of kill.
as §5, §6
(§10) A microbiology assessment was performed using the media comprising hypochlorous acid in an analogous manner to that performed for Example 2. However, for this test, following each inoculation, samples were taken after 5 seconds, 30 seconds, 1, 2, and 5 minutes to evaluate the rate of kill.

E. faecalis = assay: as above; conditions: for Reduction in microbial colony forming unit (CFU) counts: reinoculation at 24 hours; for Time up to which rapid kill within 5 seconds following inoculation was observed: repeat inoculation, sample taken 5 seconds after each inoculation
Protocol: as §7, §8, §9, §5, §6, §10

E. coli NCIMB 14067 = assay: Antimicrobial efficacy at very low concentrations, suspension test with total viable counts
Protocol: The antimicrobial efficacy of hypochlorous acid was tested at even lower concentrations (10, 25, and 50 ppm) against the challenging organism E. coli NCIMB 14067.
The representative colonies of E. coli NCIMB 14067 were dispersed in maximum recovery diluent (MRD) to obtain an optical density (OD540nm) equivalent to approximately 1×10^6 CFU/mL. A quantitative plate count was performed on this suspension to determine the total number of viable organisms inoculated. A new suspension was prepared for each concentration tested.
A 1000 ppm hypochlorous acid solution was diluted in sterile deionised water to provide the respective 10, 25 and 50 ppm hypochlorous acid solutions.
The hypochlorous acid samples were aliquoted into 9 mL volumes and 1 mL of the challenge organism suspension was added and mixed (the final number of bacteria present is now approximately 1×10^5 CFU/mL). Following 5, 30 seconds, 1, 2, and 5 minutes, 100 μL volumes were sampled and transferred to 0.9 mL and 9.9 mL of Dey-Engley Neutralising Broth (DENB) (to provide a 1:10 and 1:100 dilution respectively), and total viable counts were performed to establish the amount present. The plates were left to dry before being inverted and incubated at 35±3° C. for at least 48 hours. A negative control was also tested whereby 1 mL of the challenge organism suspension was added to 9 mL of MRD and tested as previously described. Following the incubation period, the number of CFUs were counted on the most appropriate dilution for each sample i.e. between 25-250 CFU/plate.

[3] = both concentrations tested (0.1% and 0.01% in SDW), any timepoint, 5 seconds to 5 minutes
[4] = 100 ppm in SDW, within 5 seconds and for the remaining testing period

SMILES	Decrease in challenge organism numbers compared to the control [1, 3]	Decrease in challenge organism numbers compared to the control [2, 3]	Time up to which rapid kill within 5 seconds following inoculation was observed (S. aureus)	Time up to which rapid kill within 5 seconds following inoculation was observed (E. coli)	Reduction in microbial colony forming unit (CFU) counts (E. faecalis; after 5 minutes of inoculation)	Time up to which rapid kill within 5 seconds following inoculation was observed (E. faecalis)	Numbers of challenge organism [1, 4]	Numbers of challenge organism [2, 4]	Bacterial level at the 1 minute timepoint (E. coli NCIMB 14067; 10 ppm, about 1×10^5 CFU/mL inoculum)	Numbers of bacteria after 30 seconds (E. coli NCIMB 14067; 25 ppm, about 1×10^5 CFU/mL inoculum)	Numbers of bacteria after 30 seconds (E. coli NCIMB 14067; 50 ppm, about 1×10^5 CFU/mL inoculum)	CFU/mL of negative control (MRD) larger than for the samples (E. coli NCIMB 14067; all concentrations (10, 25, 50 ppm) and time points tested)	Reduction in microbial colony forming unit (CFU) counts (E. faecalis; after around 30 seconds of inoculation)
Nc1ccc(S(N)(=O)=O)cc1 [sulfanilamide, reference compound]	no decrease	no decrease											
OCl [hypochlorous acid]			up to 6 hours	up to 24 hours	over 3 orders of magnitude	up to 6 hours	undetectable	undetectable	undetectable	undetectable	undetectable	over 4 orders of magnitude	
[O][Cl+][O-] [chlorine dioxide]			up to 6 hours	up to 24 hours		up to 6 hours							4 orders of magnitude
